From US5972598A, “Methods for preventing multidrug resistance in cancer cells” (priority 1995, dated 1999)
“Also recorded” adds a separate entry of the source. Read-outs that look alike come from different tables or passages of the source.

Legend:
MDR1 [1] = type: cell-based, human
Description: The times of drug exposure are indicated.
(§1) (Commercially-available kits (for example, from GIBCO/BRL, Gaithersburg, Md.) can be advantageously modified for making cDNA using random hexamers.) PCR is then performed using the following primers: […]
Next, it was tested whether drug-induced MDR1 expression was maintained after the cytotoxic treatment. […] At different time points, MDR1 expression in the surviving cells was analyzed by dye efflux and immunofluorescence labeling with UIC2 (FIG. 3c) or by cDNA-PCR (FIG. 4e).

P-glycoprotein [2] = molecular target: T1, P-glycoprotein (Homo sapiens, UniProt P08183); experiment: Dye efflux (Rh123 or DiOC2 (3)) assay of drug-treated K562 cells
Description: Top panel: Rh123 efflux from untreated cells (-) and from cells treated with 50 μM Ara-C (ARA) for 12 hours or with 10 μAra-C for 2 to 3 days.

MDR1 [3] = experiment: cDNA-PCR / flow cytometric analysis of MDR1 induction by PKC agonists; type: cell-based, human
Description: Neomycin sulfate (Calbiochem) was dissolved in sterile, deionized water.
(§2) P-glycoprotein expression on the cell surface was analyzed using a P-glycoprotein-specific mouse IgG2a monoclonal antibody (mAB) UIC2 (Mechetner and Roninson, 1992, Proc. Natl. Acad. Sci. USA 89:5824-5828). Mouse IgG2a isotype control antibody was obtained from Sigma. For staining of PBL with UIC2 mAB or isotype control, 10^6 cells were stained at 4° C. with 10 μg of the antibody for 30 minutes and, after two washes, stained for 30 minutes with 10 μg of FITC-conjugated goat anti-mouse IgG2a antibody (Fisher Scientific, Fairlawn, N.J.), diluted 1:2 with PBS plus 2% FCS. Cells were then washed twice with ice-cold PBS plus 2% FCS, stained with PI and kept on ice until analysis. Essentially the same protocol was used for staining of other cell types except that 2 μg of the secondary antibody were used per 10^6 cells. In some experiments, phycoerythrine (PE)-conjugated goat anti-mouse IgG2a was used as the secondary antibody; no PI was added in such cases. Flow cytometric analysis was conducted on a Coulter Epics 753 Flow Cytometer.
RNA was extracted from approximately 10^6 cells by a small-scale sodium dodecyl sulfate extraction procedure (Peppel and Baglioni, 1990, BioTechniques 9:711-713). In the alternative, RNA was isolated from cells using the TRIzol method (commercially available from GIBCO/BRL). cDNA synthesis and polymerase chain reaction (PCR) amplification of MDR1 and β2 -microglobulin cDNA sequences were carried out essentially as described (Noonan et al., 1990, Proc. Natl. Acad. Sci. USA 87:7160-7164; Noonan and Roninson, 1991, pp. 319-333 In Roninson (Ed.), Molecular and Cellular Biology of Multidrug Resistance in Tumor Cells, Plenum Press, New York). Briefly, cDNA was prepared using the method of Krug and Berger (1987, Meth. Enzymol. 152: 316-324), with the modification that random hexamers were substituted for oligo(dT) as primers for cDNA synthesis. (Commercially-available kits (for example, from GIBCO/BRL, Gaithersburg, Md.) can be advantageously modified for making cDNA using random hexamers.) PCR is then performed using the following primers: […]
(§3) (where β2 M represents β2 microglobulin). PCR was performed for β2 M experiments under a regime consisting of 1 cycle comprising denaturation at 94° C. for 3 minutes, primer annealing at 60° C. for 30 seconds, and primer extension at 72° C. for 1 minute, followed by 19 cycles comprising denaturation at 94° C. for 30 seconds, primer annealing at 60° C. for 30 seconds, and primer extension at 72° C. for 1 minute, followed by a final cycle comprising denaturation at 94° C. for 30 seconds, primer annealing at 60° C. for 30 seconds, and primer extension at 72° C. for 5 minutes. MDR1 cDNA sequences were amplified using the identical protocol as for β2 M, but extending the amplification from 19 cycles to 25 cycles. In addition, the cDNA-PCR amplification protocol contained the following modifications: (i) Taq DNA polymerase was added to the PCR mixtures after initial heating of the samples to 94° C. (ii) The yield of the β2 -microglobulin-specific band, obtained after 22-28 cycles of PCR, was used as the primary criterion for equalizing the starting amounts of the cDNA templates in different preparations, in order to account for differential RNA degradation in cells subjected to different types of treatment. […] PCR products were detected by autoradiography.

P-glycoprotein [4] = molecular target: T1, P-glycoprotein; experiment: Rh123 accumulation assay of P-glycoprotein activity in human PBL; conditions: human PBL
Description: KG1 cell line was maintained in Iscove's modified Dulbecco medium with 20% fetal calf serum (FCS) and 2 mM L-glutamine, 100 units/ml penicillin and 100 μg/ml streptomycin (GIBCO Laboratories, Grand Island, N.Y.).
A functional assay was used to detect changes in P-glycoprotein activity in human PBL treated with different agents that induce lymphoid differentiation or activation, based on flow cytometric analysis of cellular accumulation of Rh123, which is a P-glycoprotein-transported fluorescent mitochondrial dye. In this assay, cells expressing little or no P-glycoprotein stain brightly with Rh123, whereas cells with higher levels of P-glycoprotein activity appear Rh123-dull. […] Since the best-known cellular effect of TPA is the stimulation of PKC, it was also tested whether DOG, a cell-permeable diacylglycerol and a physiological stimulant of PKC, would have an effect on Rh123 accumulation in PBL.

MDR1 [5] = experiment: Inhibition of PKC agonist (TPA or DOG) induced MDR1 expression; type: cell-based, human; conditions: for inhibition of TPA-induced MDR1 expression: H-9 cells, TPA 10 ng/ml overnight
Description: as §1
Cells were plated in 6-well Falcon tissue culture plates at 3,300 cells per well, and incubated in the appropriate concentrations of drugs. […] or TPA, with the exception of herbimycin A, which was added 12 hours prior to Ara-C or TPA, and tyrphostins A25 and B46, which were each added 16 hours prior to MDR1 induction by the addition of Ara-C or TPA. Cells were incubated overnight (TPA) or for 10 hours (Ara-C) at 37° C. under an atmosphere of 5% CO2 after the addition of the MDR1 inducing agents before harvesting for cDNA-PCR analysis.
(§4) cDNA-PCR analyses on each culture treated with drugs, or in control cultures incubated in the absence or presence of Ara-C or TPA alone, were performed as described in Section 6.1.3 above.

MRP = experiment: Inhibition of MRP expression in H-9 cells; type: cell-based, human; parameters: Inhibition of MRP Expression: key to the marks not given beside the values; conditions: 32 μM
Description: PCR was performed using the following primers: […]
(where β2 M represents β2 microglobulin). PCR was performed for β2 M experiments under a regime consisting of 1 cycle comprising denaturation at 94° C. for 3 minutes, primer annealing at 60° C. for 30 seconds, and primer extension at 72° C. for 1 minute, followed by 19 cycles comprising denaturation at 94° C. for 30 seconds, primer annealing at 60° C. for 30 seconds, and primer extension at 72° C. for 1 minute, followed by a final cycle comprising denaturation at 94° C. for 30 seconds, primer annealing at 60° C. for 30 seconds, and primer extension at 72° C. for 5 minutes.

MDR1 [6] = experiment: Inhibition of cytotoxic drug (Ara-C) induced MDR1 expression by protein kinase inhibitors; type: cell-based, human
Description: FIG. 5. Effect of protein kinase inhibitors on MDR1 mRNA induction by cytotoxic drugs in H9 cells. […]
as §1, §3
Cells were plated in 6-well Falcon tissue culture plates at 3,300 cells per well, and incubated in the appropriate concentrations of drugs. Each of the protein kinase inhibitors to be tested were added at their appropriate final concentrations 45 minutes prior to MDR1 induction by the addition of Ara-C or TPA, with the exception of herbimycin A, which was added 12 hours prior to Ara-C or TPA, and tyrphostins A25 and B46, which were each added 16 hours prior to MDR1 induction by the addition of Ara-C or TPA. Cells were incubated overnight (TPA) or for 10 hours (Ara-C) at 37° C. under an atmosphere of 5% CO2 after the addition of the MDR1 inducing agents before harvesting for cDNA-PCR analysis.
In addition to these conditions, the analysis of certain drugs imposed added requirements. For experiments using calphostin C, cells were incubated under direct white light illumination. For experiments using D,L-threo-sphingosine, the cell culture medium was pre-treated with the appropriate concentration of the drug for one hour at 37° C. with continuous gentle mixing. After this pre-treatment, cells were resuspended in media supplemented with drug and incubated for 45 minutes as described above.
as §4
To further evaluate the capacity of protein kinase inhibitors to suppress MDR1 induction by cytotoxic drugs and PKC agonists, H-9 human T cell leukemia cells were used in cDNA-PCR assays to examine induced MDR1 mRNA expression levels in the presence of such protein kinase inhibitors.

tumor = conditions: nude mice; Meyer et al., 1989; cited from earlier work
P-glycoprotein [7] = system: P-glycoprotein
Description: as §2, with “Mouse” for “P-glycoprotein expression on the cell surface was analyzed using a P-glycoprotein-specific mouse IgG2a monoclonal antibody (mAB) UIC2 (Mechetner and Roninson, 1992, Proc. Natl. Acad. Sci. USA 89:5824-5828). Mouse”, “cases.” for “cases. Flow cytometric analysis was conducted on a Coulter Epics 753 Flow Cytometer.”

T1 sequence (P08183 whole entry): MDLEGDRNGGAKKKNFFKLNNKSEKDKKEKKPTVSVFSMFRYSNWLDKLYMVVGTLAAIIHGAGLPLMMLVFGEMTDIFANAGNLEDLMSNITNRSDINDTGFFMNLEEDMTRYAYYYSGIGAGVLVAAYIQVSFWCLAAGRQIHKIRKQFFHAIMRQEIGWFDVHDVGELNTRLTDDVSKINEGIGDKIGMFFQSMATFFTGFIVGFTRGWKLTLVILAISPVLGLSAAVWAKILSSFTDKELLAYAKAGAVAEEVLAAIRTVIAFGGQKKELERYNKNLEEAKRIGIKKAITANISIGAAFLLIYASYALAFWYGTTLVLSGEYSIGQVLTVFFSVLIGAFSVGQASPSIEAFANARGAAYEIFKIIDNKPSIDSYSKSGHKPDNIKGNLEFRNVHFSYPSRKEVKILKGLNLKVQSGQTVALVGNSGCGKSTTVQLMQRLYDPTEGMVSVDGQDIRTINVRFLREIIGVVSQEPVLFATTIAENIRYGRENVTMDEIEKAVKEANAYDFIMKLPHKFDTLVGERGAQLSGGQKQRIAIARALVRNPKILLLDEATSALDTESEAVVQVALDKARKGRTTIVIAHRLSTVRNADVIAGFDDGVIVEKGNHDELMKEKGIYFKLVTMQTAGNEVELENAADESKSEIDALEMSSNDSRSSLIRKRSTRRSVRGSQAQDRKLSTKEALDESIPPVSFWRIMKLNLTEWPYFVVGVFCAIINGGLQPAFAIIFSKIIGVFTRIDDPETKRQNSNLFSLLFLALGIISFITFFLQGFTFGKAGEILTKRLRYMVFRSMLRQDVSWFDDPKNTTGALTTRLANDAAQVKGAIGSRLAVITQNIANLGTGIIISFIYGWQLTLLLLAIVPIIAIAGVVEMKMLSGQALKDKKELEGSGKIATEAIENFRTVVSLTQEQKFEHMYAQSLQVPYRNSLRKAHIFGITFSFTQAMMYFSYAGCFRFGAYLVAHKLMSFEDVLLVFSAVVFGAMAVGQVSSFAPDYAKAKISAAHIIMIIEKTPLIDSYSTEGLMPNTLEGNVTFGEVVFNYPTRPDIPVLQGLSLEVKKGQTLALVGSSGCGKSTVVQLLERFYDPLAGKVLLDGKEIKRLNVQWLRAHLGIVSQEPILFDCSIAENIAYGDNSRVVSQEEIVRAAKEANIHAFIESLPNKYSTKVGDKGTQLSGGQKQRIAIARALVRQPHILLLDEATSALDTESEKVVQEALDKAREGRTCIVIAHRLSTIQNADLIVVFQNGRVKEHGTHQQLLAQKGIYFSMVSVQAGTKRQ

COc1cccc2c1C(=O)c1c(O)c3c(c(O)c1C2=O)C[C@@](O)(C(=O)CO)C[C@@H]3O[C@H]1C[C@H](N)[C@H](O)[C@H](C)O1 [Adriamycin]
MDR1 mRNA expression (MDR1 [1]; H9 T-cell leukemia): MDR1 mRNA expression was induced
MDR1 mRNA induction (MDR1 [1]; K562 cells): induce MDR1 mRNA expression
maintenance of MDR1 expression after removal of the drug (MDR1 [1]; K562 cells treated 3-5 days, then grown in absence of drug): least several weeks
MDR1 mRNA expression (MDR1 [1]; KB-3-1 epidermoid carcinoma, 2 days): MDR1 mRNA expression was induced
MDR1 induction, mRNA and protein levels (MDR1 [1]; human leukemia and solid-tumor derived cell lines, subpopulation of treated cells): MDR1 induction, both at the mRNA and at the protein levels, was observed
treated cells showing efflux of Rh123 or DiOC2 (3) (P-glycoprotein [2]): 3-10%

CCCCCCCC(=O)OCC(CO)OC(=O)CCCCCCC (stereo not drawn) [DOG, 1,2-dioctanoylglycerol]
induction of MDR1 mRNA and P-glycoprotein (MDR1 [3]; H9 cells): clear-cut induction of MDR1 mRNA and P-glycoprotein
induction of MDR1 mRNA and P-glycoprotein (MDR1 [3]; K562 cells): clear-cut induction of MDR1 mRNA and P-glycoprotein
effect on P-glycoprotein activity (Rh123 accumulation) (P-glycoprotein [4]): decreased Rh123 accumulation

NC(=O)NO [hydroxyurea]
MDR1 induction, mRNA and protein levels (MDR1 [1]): MDR1 induction, both at the mRNA and at the protein levels, was observed
MDR1 mRNA induction (MDR1 [1]): induce MDR1 mRNA expression
treated cells showing efflux of Rh123 or DiOC2 (3) (P-glycoprotein [2]): 3-10%

COC(=O)C=Cc1cc(O)ccc1O [methyl-2,5-dihydroxycinnamate]
inhibition of TPA-induced MDR1 expression (MDR1 [5]; 32 μM): completely inhibited TPA-induced MDR1 expression
Inhibition of MRP Expression (MRP): ++++
inhibition of MRP expression (MRP): strongly inhibited; also recorded: capable of inhibiting MRP expression
inhibition of Ara-C induced MDR1 expression (MDR1 [6]; H9 cells, 25 μM Ara-C 10 h, 32 μM): ++++
inhibition of Ara-C induced MDR1 expression (MDR1 [6]; H-9 cells, 32 μM): completely inhibit Ara-C induced MDR1 expression
inhibition of Ara-C induced MDR1 expression (MDR1 [6]; H-9 cells, 32 μM and 64 μM): inhibits MDR1 expression at both 32 μM and 64 μM to essentially the same degree

CN[C@@H]1C[C@H]2O[C@@](C)([C@@H]1OC)n1c3ccccc3c3c4c(c5c6ccccc6n2c5c31)C(=O)NC4 [staurosporine]
anti-tumor effect at fraction of MTD (tumor): 1/10
maximum tolerated dose (MTD) (tumor): 1 mg/kg
inhibition of DOG-induced MDR1 induction (MDR1 [5]; H9 cells, staurosporine 30 nM, 30 minutes prior to DOG): completely abolished MDR1 induction
inhibition of TPA-induced MDR1 induction (MDR1 [5]; H9 cells, staurosporine 30 nM, 30 minutes prior to TPA): completely abolished MDR1 induction
inhibition of TPA-induced MDR1 expression (MDR1 [5]; 30 nM): completely inhibited TPA-induced MDR1 expression
P-glycoprotein expression, inhibitor alone (P-glycoprotein [7]; KG1a cells, staurosporine 100 nM): significant increase in P-glycoprotein expression
P-glycoprotein expression, inhibitor alone (P-glycoprotein [7]; KG1 cells): significant increase in P-glycoprotein expression
MDR1 expression, inhibitor alone (P-glycoprotein [7]; P-glycoprotein-negative H9 cells, 30 nM): did not induce MDR1 expression
prevention of MDR1 induction by TPA, diacylglycerol, Ara-C, vinblastine, methotrexate and Adriamycin (MDR1 [6]; P-glycoprotein-negative cells, 30 nM): prevent MDR1 induction
